We go through 26 compounds from patent US12630548B2, “Azetidine derivatives for the treatment of integrin associated diseases” (The University of Nottingham, priority 2020, dated 2026).

In the assay the target is ανβ6 (Homo sapiens, UniProt P06756+P18564). As to the kind of experiment: Cell adhesion assay, αvβ6 integrin. The settings on record: cell adhesion data; read-out: ανβ6 IC50. In kind it is cell-based. The method, then:
The assays were performed as described in the literature (P. A. Procopiou, N. A. Anderson, J. Barrett, T. N. Barrett, M. H. J. Crawford, B. J. Fallon, A. P. Hancock, J. Le, S. Lemma, R. P. Marshall, J. Morrell, J. M. Pritchard, J. E. Rowedder, P. Saklatvala, R. J. Slack, S. L. Sollis, C. J. Suckling, L. R. Thorp, G. Vitulli, et al., J. Med. Chem. 2018, 61, 8417-8443; S. B. Ludbrook, S. T. Barry, C. J. Delves, C. M. T. Horgan, Biochem. J. 2003, 369, 311-318).

ανβ6, sequence (P06756 31-889 limits assumed): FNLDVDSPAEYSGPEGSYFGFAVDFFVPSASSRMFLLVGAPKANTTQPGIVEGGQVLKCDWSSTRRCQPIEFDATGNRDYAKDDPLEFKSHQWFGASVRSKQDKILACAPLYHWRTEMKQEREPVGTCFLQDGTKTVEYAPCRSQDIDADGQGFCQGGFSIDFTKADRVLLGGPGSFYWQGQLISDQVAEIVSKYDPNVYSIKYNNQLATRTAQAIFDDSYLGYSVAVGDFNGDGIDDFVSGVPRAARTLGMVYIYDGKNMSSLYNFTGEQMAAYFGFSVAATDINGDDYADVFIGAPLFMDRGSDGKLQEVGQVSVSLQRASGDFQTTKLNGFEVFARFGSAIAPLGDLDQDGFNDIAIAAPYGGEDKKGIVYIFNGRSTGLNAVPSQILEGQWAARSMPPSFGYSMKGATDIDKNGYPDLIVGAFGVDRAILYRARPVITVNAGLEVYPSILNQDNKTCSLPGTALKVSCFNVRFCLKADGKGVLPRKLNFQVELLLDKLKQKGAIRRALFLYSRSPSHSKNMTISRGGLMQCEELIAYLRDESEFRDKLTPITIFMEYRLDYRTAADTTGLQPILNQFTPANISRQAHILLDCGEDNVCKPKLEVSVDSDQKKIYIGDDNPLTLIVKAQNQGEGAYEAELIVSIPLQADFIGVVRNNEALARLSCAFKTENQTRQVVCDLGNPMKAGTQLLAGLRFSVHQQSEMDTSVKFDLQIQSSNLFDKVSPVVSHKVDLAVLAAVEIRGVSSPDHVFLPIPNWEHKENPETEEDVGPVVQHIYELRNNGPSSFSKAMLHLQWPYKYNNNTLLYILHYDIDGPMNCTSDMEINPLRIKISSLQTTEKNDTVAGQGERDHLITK
ανβ6, sequence (P06756 891-1048 limits assumed): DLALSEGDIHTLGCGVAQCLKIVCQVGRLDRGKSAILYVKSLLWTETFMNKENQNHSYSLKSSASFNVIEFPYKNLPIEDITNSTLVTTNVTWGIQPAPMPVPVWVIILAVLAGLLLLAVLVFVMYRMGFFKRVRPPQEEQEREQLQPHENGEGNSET
ανβ6, sequence (P18564 22-788): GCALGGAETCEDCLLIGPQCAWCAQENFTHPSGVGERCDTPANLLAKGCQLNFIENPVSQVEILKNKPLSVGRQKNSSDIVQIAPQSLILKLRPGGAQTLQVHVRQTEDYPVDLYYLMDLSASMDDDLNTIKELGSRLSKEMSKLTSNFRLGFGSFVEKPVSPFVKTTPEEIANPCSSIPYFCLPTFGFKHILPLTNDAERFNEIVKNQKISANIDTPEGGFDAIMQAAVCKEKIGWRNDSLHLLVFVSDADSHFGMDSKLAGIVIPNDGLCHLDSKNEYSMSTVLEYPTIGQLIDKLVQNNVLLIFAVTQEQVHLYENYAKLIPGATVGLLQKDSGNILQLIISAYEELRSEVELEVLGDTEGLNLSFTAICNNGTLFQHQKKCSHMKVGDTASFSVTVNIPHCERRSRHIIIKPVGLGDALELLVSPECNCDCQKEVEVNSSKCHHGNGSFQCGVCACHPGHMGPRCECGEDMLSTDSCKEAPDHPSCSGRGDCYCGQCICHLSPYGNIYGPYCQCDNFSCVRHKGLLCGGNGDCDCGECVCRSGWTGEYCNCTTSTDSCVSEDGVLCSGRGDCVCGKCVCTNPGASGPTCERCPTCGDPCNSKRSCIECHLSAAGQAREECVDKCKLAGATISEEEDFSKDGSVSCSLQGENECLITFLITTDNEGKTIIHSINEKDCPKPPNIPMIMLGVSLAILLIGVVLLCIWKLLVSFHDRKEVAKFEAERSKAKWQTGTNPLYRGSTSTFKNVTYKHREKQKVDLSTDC

For `Cc1cc(C)cc(S(=O)(=O)N2CC(C(=O)NC(CNC(=O)CCCCc3ccc4c(n3)NCCC4)C(=O)O)C2)c1` (racemic) [Example 11, 2-(1-(3,5-dimethylbenzenesulfonyl)azetidine-3-carboxamido)-3-(5-(5,6,7,8-tetrahydro-1,8-naphthyridin-2-yl)pentanamido)propanoic acid], the IC50 was below 250 nM.

With `O=C(CCCCc1ccc2c(n1)NCCC2)NC[C@H](NC(=O)C1CN(S(=O)(=O)c2cccc(N3CCNCC3)c2)C1)C(=O)O` [Example 34, (S)-2-(1-(3-(Piperazin-1-yl)benzenesulfonyl)azetidine-3-carboxamido)-3-(5-(5,6,7,8-tetrahydro-1,8-naphthyridin-2-yl)pentanamido)propanoic acid], the half-maximal inhibitory concentration (IC50) was below 250 nM.

For the compound `Cc1cccc(S(=O)(=O)N2CC(C(=O)N[C@@H](CCN(C)CCCCc3ccc4c(n3)NCCC4)C(=O)O)C2)c1` [Example 37, (S)-4-(Methyl(4-(5,6,7,8-tetrahydro-1,8-naphthyridin-2-yl)butyl)amino)-2-(1-(3-methylbenzenesulfonyl)azetidine-3-carboxamido)butanoic acid], the IC50 was below 250 nM.

For `O=C(CCCCc1ccc2c(n1)NCCC2)NCC(NC(=O)C1CN(S(=O)(=O)c2ccc(F)cc2)C1)C(=O)O` (racemic) [Example 2, 2-(1-(4-fluorobenzenesulfonyl)azetidine-3-carboxamido)-3-(5-(5,6,7,8-tetrahydro-1,8-naphthyridin-2-yl)pentanamido)propanoic acid], the half-maximal inhibitory concentration (IC50) is below 250 nM.

With `O=C(CCCCc1ccc2c(n1)NCCC2)NCC(NC(=O)C1CN(S(=O)(=O)c2cc(Cl)cc(Cl)c2)C1)C(=O)O` (racemic) [Example 10, 2-(1-(3,5-dichlorobenzenesulfonyl)azetidine-3-carboxamido)-3-(5-(5,6,7,8-tetrahydro-1,8-naphthyridin-2-yl)pentanamido)propanoic acid], the half-maximal inhibitory concentration (IC50) was below 250 nM.

Take `CCc1cccc(S(=O)(=O)N2CC(C(=O)NC(CNC(=O)CCCCc3ccc4c(n3)NCCC4)C(=O)O)C2)c1` (racemic) [Example 14, 2-(1-(3-ethylbenzenesulfonyl)azetidine-3-carboxamido)-3-(5-(5,6,7,8-tetrahydro-1,8-naphthyridin-2-yl)pentanamido)propanoic acid]: the IC50 is below 250 nM.

For `O=C(CCCCc1ccc2c(n1)NCCC2)NC[C@H](NC(=O)C1CN(S(=O)(=O)c2cccc(C3CC3)c2)C1)C(=O)O` [Example 30, (S)-2-(1-(3-Cyclopropylbenzenesulfonyl)azetidine-3-carboxamido)-3-(5-(5,6,7,8-tetrahydro-1,8-naphthyridin-2-yl)pentanamido)propanoic acid], the IC50 is below 250 nM.

Take `Cc1cccc(S(=O)(=O)N2CC(F)(C(=O)NC(CNC(=O)CCCCc3ccc4c(n3)NCCC4)C(=O)O)C2)c1` (racemic) [Example 17, 2-(3-fluoro-1-(3-methylbenzenesulfonyl)azetidine-3-carboxamido)-3-(5-(5,6,7,8-tetrahydro-1,8-naphthyridin-2-yl)pentanamido)propanoic acid]: the half-maximal inhibitory concentration (IC50) is below 250 nM.

On to `O=C(CCCCc1ccc2c(n1)NCCC2)NC[C@H](NC(=O)C1CN(S(=O)(=O)c2cc(Cl)cc(Cl)c2)C1)C(=O)O` [Example 23, (S)-2-(1-(3,5-Dichlorobenzenesulfonyl)azetidine-3-carboxamido)-3-(5-(5,6,7,8-tetrahydro-1,8-naphthyridin-2-yl)pentanamido)propanoic acid], for which the half-maximal inhibitory concentration (IC50) is below 250 nM.

Consider `O=C(CCCCc1ccc2c(n1)NCCC2)NC[C@H](NC(=O)C1CN(S(=O)(=O)c2cccc(C(F)F)c2)C1)C(=O)O` [Example 29, (S)-2-(1-(3-(Difluoromethyl)benzenesulfonyl)azetidine-3-carboxamido)-3-(5-(5,6,7,8-tetrahydro-1,8-naphthyridin-2-yl)pentanamido)propanoic acid], for which the IC50 was below 250 nM.

As for `Cc1cccc(S(=O)(=O)N2CC(C(=O)NC(CNC(=O)CCCCc3ccc4c(n3)NCCC4)C(=O)O)C2)c1` (racemic) [Example 4, 3-(5-(5,6,7,8-tetrahydro-1,8-naphthyridin-2-yl)pentanamido)-2-(1-(3-methylbenzenesulfonyl)azetidine-3-carboxamido)propanoic acid], the IC50 is below 250 nM.

As to `Cc1nc(S(=O)(=O)N2CC(C(=O)NC(CNC(=O)CCCCc3ccc4c(n3)NCCC4)C(=O)O)C2)cn1C` (racemic) [Example 22, 2-(1-((1,2-dimethyl-1H-imidazol-4-yl)sulfonyl)azetidine-3-carboxamido)-3-(5-(5,6,7,8-tetrahydro-1,8-naphthyridin-2-yl)pentanamido)propanoic acid], the concentration for half-maximal inhibition (IC50) was below 250 nM.

Turning to `CN(C)CCOc1cccc(S(=O)(=O)N2CC(C(=O)N[C@@H](CNC(=O)CCCCc3ccc4c(n3)NCCC4)C(=O)O)C2)c1` [Example 35], the half-maximal inhibitory concentration (IC50) was below 250 nM.

Turning to `Cc1cccc(S(=O)(=O)N2CC(C)(C(=O)NC(CNC(=O)CCCCc3ccc4c(n3)NCCC4)C(=O)O)C2)c1` (racemic) [Example 15, 2-(3-methyl-1-(3-methylbenzenesulfonyl)azetidine-3-carboxamido)-3-(5-(5,6,7,8-tetrahydro-1,8-naphthyridin-2-yl)pentanamido)propanoic acid], the half-maximal inhibitory concentration (IC50) is below 250 nM.

`O=C(CCCCc1ccc2c(n1)NCCC2)NCC(NC(=O)C1CN(S(=O)(=O)c2ccccc2)C1)C(=O)O` (racemic) [Example 9, 2-(1-(phenylsulfonyl)azetidine-3-carboxamido)-3-(5-(5,6,7,8-tetrahydro-1,8-naphthyridin-2-yl)pentanamido)propanoic acid]: the IC50 was below 250 nM.

Consider `O=C(CCCCc1ccc2c(n1)NCCC2)NC[C@H](NC(=O)C1CN(S(=O)(=O)c2cccc(C3=CCOCC3)c2)C1)C(=O)O` [Example 33], for which the IC50 was below 250 nM.

Consider `O=C(CCCCc1ccc2c(n1)NCCC2)NC[C@H](NC(=O)C1CN(S(=O)(=O)c2ccc3c(c2)CCC3)C1)C(=O)O` [Example 31, (S)-2-(1-((2,3-Dihydro-1H-inden-5-yl)sulfonyl)azetidine-3-carboxamido)-3-(5-(5,6,7,8-tetrahydro-1,8-naphthyridin-2-yl)pentanamido)propanoic acid], for which the IC50 was below 250 nM.

`Cc1cc(Cl)cc(S(=O)(=O)N2CC(C(=O)NC(CNC(=O)CCCCc3ccc4c(n3)NCCC4)C(=O)O)C2)c1` (racemic) [Example 13, 2-(1-(3-chloro-5-methylbenzenesulfonyl)azetidine-3-carboxamido)-3-(5-(5,6,7,8-tetrahydro-1,8-naphthyridin-2-yl)pentanamido)propanoic acid]: the 50% inhibitory concentration (IC50) is below 250 nM.

As for `Cc1ccccc1S(=O)(=O)N1CC(C(=O)NC(CNC(=O)CCCCc2ccc3c(n2)NCCC3)C(=O)O)C1` (racemic) [Example 3, 3-(5-(5,6,7,8-tetrahydro-1,8-naphthyridin-2-yl)pentanamido)-2-(1-(2-methylbenzenesulfonyl)azetidine-3-carboxamido)propanoic acid], the IC50 was below 250 nM.

Consider `COc1ccc(S(=O)(=O)N2CC(C(=O)N[C@@H](CNC(=O)CCCCc3ccc4c(n3)NCCC4)C(=O)O)C2)cc1OC` [Example 32, (S)-2-(1-(3,4-Dimethoxybenzenesulfonyl)azetidine-3-carboxamido)-3-(5-(5,6,7,8-tetrahydro-1,8-naphthyridin-2-yl)pentanamido)propanoic acid], for which the IC50 is below 250 nM.

For the compound `CN(CCCCc1ccc2c(n1)NCCC2)CC[C@H](NC(=O)C1CN(S(=O)(=O)c2cccc(Cl)c2)C1)C(=O)O` [Example 39, (S)-2-(1-((3-chlorophenyl)sulfonyl)azetidine-3-carboxamido)-4-(methyl(4-(5,6,7,8-tetrahydro-1,8-naphthyridin-2-yl)butyl)amino)butanoic acid], the half-inhibitory concentration (IC50) is below 250 nM.

Regarding `Cc1ccc(S(=O)(=O)N2CC(C(=O)N[C@@H](CCN(C)CCCCc3ccc4c(n3)NCCC4)C(=O)O)C2)cc1` [Example 40, (S)-4-(Methyl(4-(5,6,7,8-tetrahydro-1,8-naphthyridin-2-yl)butyl)amino)-2-(4-methylbenzenesulfonylazetidine-3-carboxamido)butanoic acid], the IC50 was below 250 nM.

As for `Cn1cc(S(=O)(=O)N2CC(C(=O)NC(CNC(=O)CCCCc3ccc4c(n3)NCCC4)C(=O)O)C2)cn1` (racemic) [Example 19, 2-(1-((1-methyl-1H-pyrazol-4-yl)sulfonyl)azetidine-3-carboxamido)-3-(5-(5,6,7,8-tetrahydro-1,8-naphthyridin-2-yl)pentanamido)propanoic acid], the IC50 was below 250 nM.

With `O=C(CCCCc1ccc2c(n1)NCCC2)NCC(NC(=O)C1CN(S(=O)(=O)c2cccc(F)c2)C1)C(=O)O` (racemic) [Example 5, 2-(1-(3-fluorobenzenesulfonyl)azetidine-3-carboxamido)-3-(5-(5,6,7,8-tetrahydro-1,8-naphthyridin-2-yl)pentanamido)propanoic acid], the half-inhibitory concentration (IC50) is below 250 nM.

Turning to `O=C(CCCCc1ccc2c(n1)NCCC2)NCC(NC(=O)C1CN(S(=O)(=O)c2cccc(OC(F)(F)F)c2)C1)C(=O)O` (racemic) [Example 8, 3-(5-(5,6,7,8-tetrahydro-1,8-naphthyridin-2-yl)pentanamido)-2-(1-(3-(trifluoromethoxy)benzenesulfonyl)azetidine-3-carboxamido)propanoic acid], the IC50 is below 250 nM.

For `O=C(CCCCc1ccc2c(n1)NCCC2)NCC(NC(=O)C1CN(S(=O)(=O)c2cccnc2)C1)C(=O)O` (racemic) [Example 21, 2-(1-(pyridin-3-ylsulfonyl)azetidine-3-carboxamido)-3-(5-(5,6,7,8-tetrahydro-1,8-naphthyridin-2-yl)pentanamido)propanoic acid], the IC50 was below 250 nM.

As usually defined, the IC50 is the concentration at which inhibition is half-maximal.
